From patent publication US9079913B2, “Spiro-oxindole MDM2 antagonists” (The Regents of the University of Michigan, priority 2009, dated 2015) come the findings set out here.

Data set [1] can be described thus: In vitro microsomal stability, rat. It counts as in vitro ADME.
Data set [2] has as its system cancer cell lines with wild-type p53 / mutated or deleted p53 (ATCC). As to the kind of experiment: Cell growth assay (WST-8), other cancer cell lines. The class given is cell-based. (Tetrazolium dyes change colour on reduction, which living cells bring about.)
The test system of data set [3] is Isogenic HCT-116 colon cancer cell lines. The experiment in a line: cells. It counts as cell-based.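 Note: cells grown in 96-well plates in McCoy's 5A medium with 10% FBS, exposed to compound for 4 days.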
Experimental: Cells were seeded in 96-well flat bottom cell culture plates at a density of 2−3×10^3 cells/well with compounds and incubated for 4 days.
The mark [4] stands for this setting: Homo sapiens, LNCaP, read-out: LNCAP (p53 wild-type) IC50.
Where [5] appears, read: Homo sapiens, PC-3, read-out: PC-3 (deleted p53) IC50.
Where [6] appears, read: Homo sapiens, SJSA-1, read-out: SJSA-1 (p53 wild-type) IC50.
Where [7] appears, read: Homo sapiens, HCT-116, read-out: HCT-116 (p53 wild-type) IC50.
[8] abbreviates: Homo sapiens, LNCaP, Table 19A, LNCAP cells, p53 wild-type, cell growth, read-out: LNCAP (p53 wild-type) IC50.
[9] abbreviates: Homo sapiens, PC-3, Table 19A, PC-3 cells, deleted p53, cell growth, read-out: PC-3 (deleted p53) IC50.
Setting [10] is: Homo sapiens, SJSA-1, Table 19A, SJSA-1 cells, p53 wild-type, cell growth, read-out: SJSA-1 (p53 wild-type) IC50.
Setting [11] is: Homo sapiens, HCT-116, read-out: HCT-116 (p53-/-) IC50, Table 19A, HCT-116 p53-/-, cell growth.
The mark [12] stands for this setting: Homo sapiens, HCT-116, read-out: HCT-116 (p53 wild-type) IC50, Table 19A, HCT-116 p53 wild-type, cell growth.
The mark [13] stands for this setting: Homo sapiens, LNCaP, Table 19B, LNCaP cells, read-out: Inhibition of cell growth IC50, LNCaP.
Setting [14] is: Homo sapiens, HCT-116, read-out: Inhibition of cell growth IC50, HCT116 p53 WT, Table 19B, HCT116 p53 WT.
The mark [15] stands for this setting: read-out: SJSA-1 (p53 wild-type) IC50.

Where two headings read alike, the source gives them in different places.

On to `CC(C)(C)CC1NC(C(=O)NCCN2CCOCC2)C(c2cccc(Cl)c2F)C12C(=O)Nc1cc(Cl)ccc12` (stereo not shown) [MI-63], for which the “% of compound remaining when incubated in rat liver microsomes” value (shortened to “% of compound remaining when incubated”) in data set [1] (Table 16, 0 min) is 100%; in data set [1] (Table 16, 4 min), 76%; in data set [1] (Table 16, 6 min), 57.9%; in data set [1] (Table 16, 10 min), 35.4%; in data set [1] (Table 16, 15 min), 27.7%; in data set [1] (Table 16, 30 min), 21%.

For `CC(C)(C)CC1NC(C(=O)NCCN2CCCC2)C(c2cccc(Cl)c2F)C12C(=O)Nc1cc(Cl)ccc12` (stereo not shown) [MI-120], the “% of compound remaining when incubated” value in data set [1] (Table 16, 0 min) is recorded as 100%; in data set [1] (Table 16, 4 min), 95.1%; in data set [1] (Table 16, 6 min) it was 88.1%; in data set [1] (Table 16, 10 min), 84.7%; in data set [1] (Table 16, 15 min), 82.1%; in data set [1] (Table 16, 30 min), 79%.

Regarding `CCN1CCN(CCNC(=O)C2NC(CC(C)(C)C)C3(C(=O)Nc4cc(Cl)ccc43)C2c2cccc(Cl)c2F)CC1` (stereo not shown) [MI-129], the “% of compound remaining when incubated” value in data set [1] (Table 16, 0 min) came out at 100%; in data set [1] (Table 16, 4 min) it was 74.4%; in data set [1] (Table 16, 6 min), 52.5%; in data set [1] (Table 16, 10 min), 41.1%; in data set [1] (Table 16, 15 min), 36.7%; in data set [1] (Table 16, 30 min), 33.1%.

`CC(C)N1CCN(CCNC(=O)[C@@H]2N[C@H](CC(C)(C)C)[C@]3(C(=O)Nc4cc(Cl)ccc43)[C@H]2c2cccc(Cl)c2F)CC1` [MI-130]: the “% of compound remaining when incubated” value is on record as 100% in data set [1] (Table 16, 0 min); 77.2% in data set [1] (Table 16, 4 min); 60.1% in data set [1] (Table 16, 6 min); 48% in data set [1] (Table 16, 10 min); 42.3% in data set [1] (Table 16, 15 min); 34.1% in data set [1] (Table 16, 30 min).

On to `CC(C)(C)C[C@H]1N[C@@H](C(=O)N[C@H]2CC[C@H](O)C2)[C@H](c2cccc(Cl)c2F)[C@@]12C(=O)Nc1cc(Cl)ccc12` [MI-519-51-epi], for which the IC50 in data set [2] (setting [4]) is less than 2000 nM; in data set [2] (setting [5]) it was more than 10000 nM.

Regarding `CC(C)(C)C[C@H]1N[C@@H](C(=O)N[C@H]2C[C@H](NS(C)(=O)=O)C2)[C@H](c2cccc(Cl)c2F)[C@@]12C(=O)Nc1cc(Cl)ccc12` [MI-519-61], the IC50 in data set [2] (setting [4]), in data set [2] (setting [6]) and in data set [3] (setting [7]) was less than 3000 nM throughout.

Turning to `CC(C)(C)C[C@H]1N[C@@H](C(=O)N[C@H]2C[C@](C)(O)C2)[C@H](c2cccc(Cl)c2F)[C@@]12C(=O)Nc1cc(Cl)ccc12` [MI-519-65], the “cell growth inhibition (in words)” value in data set [2] is recorded as “effectively inhibit cancer cell growth”. For the same molecule, the IC50 in data set [2] (setting [4]) and in data set [2] (setting [6]) was less than 3000 nM in each case.

On to `CC(C)(C)C[C@H]1N[C@@H](C(=O)NC2CCN(CC(F)F)CC2)[C@H](c2cccc(Cl)c2F)[C@@]12C(=O)Nc1cc(Cl)ccc12` [MI-519-66], for which the IC50 was less than 3000 nM in data set [2] (Homo sapiens, LNCaP, Table 19D, LNCaP cells, read-out: LNCaP IC50); 6890 nM in data set [2] (Homo sapiens, PC-3, Table 19D, PC3 cells, read-out: PC3 IC50); less than 3000 nM in data set [2] (Homo sapiens, Table 19D, SJSA-1 cells, unit inferred, read-out: SJSA-1); 5510 nM in data set [3] (Homo sapiens, HCT-116, read-out: HCT116p53KO IC50, Table 19D, HCT116 p53KO); less than 2000 nM in data set [3] (Homo sapiens, HCT-116, read-out: HCT116p53WT IC50, Table 19D, HCT116 p53WT).

On to `CC(C)(C)C[C@H]1N[C@@H](C(=O)NC2CC(OC(=O)CN)C2)[C@H](c2cccc(Cl)c2F)[C@@]12C(=O)Nc1cc(Cl)ccc12` (stereo partly shown) [MI-519-69], for which the IC50 in data set [2] (setting [8]) was less than 5000 nM; in data set [2] (setting [9]) it was more than 10000 nM; in data set [2] (setting [10]), less than 5000 nM; in data set [3] (setting [11]), more than 10000 nM; in data set [3] (setting [12]), less than 5000 nM.

Take `CC(C)(C)C[C@H]1N[C@@H](C(=O)NC2CC(=O)C2)[C@H](c2cccc(Cl)c2F)[C@@]12C(=O)Nc1cc(Cl)ccc12` [MI-519-70]: the IC50 in data set [2] (setting [8]) is less than 5000 nM; in data set [2] (setting [9]) it was more than 10000 nM; in data set [2] (setting [10]), less than 5000 nM; in data set [3] (setting [11]) it was more than 10000 nM; in data set [3] (setting [12]), less than 5000 nM.

As to `CC(C)(C)C[C@@H]1N[C@@H](C(=O)N[C@H]2C[C@@](C)(O)C2)[C@H](c2cccc(Cl)c2F)[C@]12C(=O)Nc1cc(Cl)ccc12` [MI-519-6401], the IC50 was determined as 300 nM in data set [2] (setting [4]), 10500 nM in data set [2] (setting [5]), 400 nM in data set [2] (setting [6]) and 100 nM in data set [3] (setting [7]).

For the molecule `CN1[C@@H](C(=O)NCCN2CCOCC2)[C@H](c2cccc(Cl)c2F)[C@@]2(C(=O)Nc3cc(F)c(F)cc32)[C@H]1CC(C)(C)C` [MI-722], the IC50 is more than 100000 nM in data set [2] (setting [13]); more than 100000 nM in data set [2] (Homo sapiens, PC-3, Table 19B, PC3 cells, read-out: Inhibition of cell growth IC50, PC3); more than 100000 nM in data set [3] (Homo sapiens, HCT-116, read-out: Inhibition of cell growth IC50, HCT116 p53 KO, Table 19B, HCT116 p53 KO); more than 100000 nM in data set [3] (setting [14]).

`CNCC(=O)N1CCN(C(=O)[C@@H]2N[C@H](CC(C)(C)C)[C@]3(C(=O)Nc4cc(Cl)c(F)cc43)[C@H]2c2cccc(Cl)c2)CC1` [MI-747]: the IC50 in data set [2] (setting [8]) amounted to 1300 nM; in data set [2] (setting [9]), 3700 nM; in data set [3] (setting [11]), 3900 nM; in data set [3] (setting [12]) it was 1300 nM.

Regarding `CC(C)(C)C[C@H]1N[C@@H](C(=O)NCC[C@H]2CC[C@@H](O)C2)[C@H](c2cccc(Cl)c2F)[C@@]12C(=O)Nc1cc(Cl)ccc12` [MI-753], the IC50 amounted to 3200 ± 300 nM in data set [2] (setting [13]); 24700 ± 2700 nM in data set [2] (Table 19B, PC3 cells, read-out: Inhibition of cell growth IC50, PC3); 2900 ± 100 nM in data set [3] (setting [14]); 21800 ± 4900 nM in data set [3] (read-out: Inhibition of cell growth IC50, HCT116 p53 KO, Table 19B, HCT116 p53 KO).

As for `CC(C)(C)C[C@H]1N[C@@H](C(=O)NCCCCN2CCCC2)[C@H](c2cccc(Cl)c2F)[C@@]12C(=O)Nc1cc(Cl)c(F)cc12` [MI-765], the IC50 was found to be 1500 ± 900 nM in data set [2] (setting [8]); 2600 ± 200 nM in data set [2] (setting [9]); 1400 ± 100 nM in data set [2] (setting [10]); 4700 ± 2000 nM in data set [3] (setting [11]); 1100 ± 200 nM in data set [3] (setting [12]).

For the molecule `CC(C)(C)C[C@H]1N[C@@H](C(=O)NCC[C@H]2CC[C@H](NS(C)(=O)=O)C2)[C@H](c2cccc(Cl)c2F)[C@@]12C(=O)Nc1cc(Cl)c(F)cc12` [MI-766], the IC50 was 900 nM in data set [2] (setting [8]); 5900 ± 2200 nM in data set [2] (setting [9]); 1700 ± 1400 nM in data set [2] (setting [10]); 6900 ± 1400 nM in data set [3] (setting [11]); 700 nM in data set [3] (setting [12]).

With `CC(C)(C)C[C@H]1N[C@@H](C(=O)NCC[C@H]2CC[C@H](N)C2)[C@H](c2cccc(Cl)c2F)[C@@]12C(=O)Nc1cc(Cl)c(F)cc12` [MI-767], the IC50 in data set [2] (setting [8]) worked out at 900 ± 200 nM; in data set [2] (setting [9]) it was 2200 ± 100 nM; in data set [2] (setting [10]) it was 900 ± 600 nM; in data set [3] (setting [11]), 2400 ± 1000 nM; in data set [3] (setting [12]) it was 700 ± 200 nM.

For the molecule `CC(C)(C)C[C@H]1N[C@@H](C(=O)NCCCNS(C)(=O)=O)[C@H](c2cccc(Cl)c2F)[C@@]12C(=O)Nc1cc(Cl)c(F)cc12` [MI-768], the IC50 came to 700 ± 200 nM in data set [2] (setting [8]); 7300 ± 800 nM in data set [2] (setting [9]); 800 ± 100 nM in data set [2] (setting [10]); 9800 ± 400 nM in data set [3] (setting [11]); 500 ± 200 nM in data set [3] (setting [12]).

As for `CC(C)(C)C[C@H]1N[C@@H](C(=O)NCCNS(C)(=O)=O)[C@H](c2cccc(Cl)c2F)[C@@]12C(=O)Nc1cc(Cl)c(F)cc12` [MI-769], the IC50 in data set [2] (setting [8]) worked out at 1500 nM; in data set [2] (setting [9]), 13000 nM; in data set [2] (setting [10]) it was 600 nM; in data set [3] (setting [11]), 10200 nM; in data set [3] (setting [12]) it was 1600 nM.

Take `CC(C)(C)C[C@H]1N[C@@H](C(=O)NC2CCC(O)CC2)[C@H](c2cccc(Cl)c2F)[C@@]12C(=O)Nc1cc(F)c(F)cc12` (stereo partly shown) [MI-786]: in data set [2] (setting [15]), the IC50 was found to be 800 nM.

With `CC(C)(C)C[C@H]1N[C@@H](C(=O)NC2CCC(O)CC2)[C@H](c2cccc(Cl)c2F)[C@@]12C(=O)Nc1cc(F)c(F)cc12` (stereo partly shown) [MI-7104], the values for the IC50 in data set [2] (read-out: LNCAP (p53 wild-type) IC50), in data set [2] (read-out: PC-3 (deleted p53) IC50) and in data set [2] (setting [15]) were less than 3000 nM, more than 10000 nM and less than 3000 nM, respectively.

In the case of `CC(C)(C)C[C@@H]1N[C@@H](C(=O)NC2CCC(O)CC2)[C@H](c2cccc(Cl)c2F)[C@]12C(=O)Nc1cc(Cl)ccc12` (stereo partly shown) [MI-77301], the IC50 in data set [2] (setting [4]) turned out to be 100 nM; in data set [2] (setting [5]), 13000 nM; in data set [2] (setting [6]), 800 nM; in data set [3] (setting [12]) it was 100 nM.

With `CC(C)(C)C[C@@H]1N[C@@H](C(=O)NC2CCC(O)CC2)[C@H](c2cccc(F)c2F)[C@]12C(=O)Nc1cc(Cl)ccc12` (stereo partly shown) [MI-710201], the IC50 in data set [3] (setting [7]) worked out at 300 nM.
